29 compounds from patent US5498609A, “Benzoazepinyl compounds as oxytocin and vasopressin antagonists” (Otsuka Pharmaceutical Company, Limited, priority 1992, dated 1996) can be followed below.

Test [1] has as its target V1 receptor (Rattus norvegicus, UniProt P30560). Put plainly: biochemical. To be noted: rat liver plasma membrane, [3H]-Arg-vasopressin, 37° C., 10 minutes, pH 8.0; read-out: IC50 in V1 receptor binding assay. As for the experimental part: Experiment 1: V1 receptor binding assay
Using rat liver plasma membrane preparations prepared according to Ichihara's method [cf: Akira Ichihara, J. Bio. Chem., 258, 9283 (1983)], the plasma membrane (50000 dpm, 2×10^-10 M) of [^3 H]-Arg-vasopressin and a test compound (60 μg, 10^-8 to 10^-4 M) are incubated at 37° C. for 10 minutes in 100 mM Tris-HCl buffer (pH: 8.0) (250 μl) containing 5 mM MgCl2, 1 mM EDTA and 0.1% BSA. After incubation, the mixture is filtered three times using the glass filter (GF/F) so as to separate the membrane preparation binding with vasopressin and then washed with the buffer (5 ml). This glass filter is taken out and mixed with liquid scintillation cocktail. The amount of [^3 H]-vasopressin binding with the membrane is measured by liquid scintillation counter and the rate of the inhibitory effect of the test compound is estimated according to the following equation. [formula] C1 : The amount of [^3 H]-vasopressin binding with the membrane in the presence of the test compound (known amount)
(§1) C0 : The amount of [^3 H]-vasopressin binding with the membrane in the absence of the test compound
(§2) B1 : The amount of [^3 H]-vasopressin binding with the membrane in the presence of the excess amount of vasopressin (10^-6 M)
(§3) The results are expressed as IC50 value, which is the concentration of the test compound required to achieve the inhibitory effect in the rate of 50%.

In test [2] the target is T1, Oxytocin receptor (Rattus norvegicus, UniProt P70536).
T1 construct: from tissue; host or cells: rat uterine muscle membrane (diethylstilbestrol-treated)
T1 sequence (P70536 1-388): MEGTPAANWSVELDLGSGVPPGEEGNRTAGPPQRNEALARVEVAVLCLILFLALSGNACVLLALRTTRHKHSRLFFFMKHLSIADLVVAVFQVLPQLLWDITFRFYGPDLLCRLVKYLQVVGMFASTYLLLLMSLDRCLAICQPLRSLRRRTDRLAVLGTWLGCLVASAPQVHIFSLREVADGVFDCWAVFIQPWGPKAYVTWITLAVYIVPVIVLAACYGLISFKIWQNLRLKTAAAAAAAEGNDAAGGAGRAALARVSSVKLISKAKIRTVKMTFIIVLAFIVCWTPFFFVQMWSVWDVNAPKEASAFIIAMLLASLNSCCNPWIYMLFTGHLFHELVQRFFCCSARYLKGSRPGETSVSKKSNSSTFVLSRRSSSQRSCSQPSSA
Kind of test: Oxytocin receptor binding assay ([3H]-oxytocin, rat uterine muscle membrane). To be noted: for IC50: 25° C., one hour, pH 8.0; for inhibition at 10 µM: 10^-5 M test compound, read-out: Inhibitory Rate (%) at 10^-5 M (oxytocin receptor binding assay). As for the experimental part:
Experiment 3: Oxytocin receptor binding assay
According to the method of W. Y. Chan et al. [Endocrinology, 126, 2095-2101 (1990)], uterine muscle is taken out from a rat which has previously been injected subcutaneously with diethylstilbestrol the day before, and homogenized, which is used as a membrane preparation. The membrane preparation (0.2 mg), [^3 H]-oxytocin (100000 dpm, 10^-9 M), a test compound (10^-9 -10^-5 M) are incubated at 25° C. for one hour in 100 mM Tris-HCl buffer (pH 8.0, 250 μl) containing a 5 mM MgCl2, 1 mM MEDTA and 0.1% BSA. The mixture is filtered through the glass filter (GF/B) so as to separate the membrane preparation binding with [^3 H]-oxytocin, and then, washed twice with the buffer (5 ml). This glass filter is put into a vial and mixed with Aquasole (liquid scintillation cocktail). The amount of [^3 H]-oxytocin binding with the membrane is measured by liquid scintillation counter. The rate of the inhibitory effect of the test compound is estimated according to the following equation.
Inhibitory Rate (%)=100-[(C1 -B)/(C0 -B)]×100
C1 : The amount of [^3 H]-oxytocin binding with the membrane in the presence of a test compound (known amount)
C0 : The amount of [^3 H]-oxytocin binding with the membrane in the absence of a test compound
B: The amount of [^3 H]-oxytocin binding with the membrane in the presence of the excess amount of oxytocin (5×10^-6 M).
The results are expressed as IC50 value, which is the concentration of the test compound required to achieve the inhibitory rate in the rate of 50%.

Test [3] concerns the target T2, V2 receptor (Rattus norvegicus, UniProt Q00788).
T2 construct: Using rat kidney plasma membrane preparations; from tissue; host or cells: rat kidney plasma membrane
Put plainly: biochemical. To be noted: rat kidney plasma membrane, [3H]-Arg-vasopressin, 4° C., pH 8.0, read-out: IC50 in V2 receptor binding assay. As for the experimental part: Experiment 2: V2 receptor binding assay
Using rat kidney plasma membrane preparations prepared according to O. Hechter's method [cf: J. Bio. Chem., 253, 3211 (1978)], the plasma membrane (100000 dpm, 4×10^-10 M) of [^3 H]-Arg-vasopressin and a test compound (0.6 mg, 10^-10 to 10^-5 M) are incubated at 4° C. for 3 hours in 100 mM Tris-HCl buffer (pH: 8.0) (250 μl) containing 5 mM MgCl2, 1 mM EDTA and 0.1% BSA. After incubation, the mixture is filtered using the glass filter (GF/F) so as to separate the membrane preparation binding with vasopressin and then washed twice with the buffer (each 5 ml). This glass filter is taken out and mixed with liquid scintillation cocktail. The amount of [^3 H]-vasopressin binding with the membrane is measured by liquid scintillation counter and the rate of the inhibitory effect of the test compound is estimated according to the following equation. [formula] C1 : The amount of [^3 H]-vasopressin binding with the membrane in the presence of the test compound (known amount)
as §1, §2, §3

T2 sequence (Q00788 whole entry): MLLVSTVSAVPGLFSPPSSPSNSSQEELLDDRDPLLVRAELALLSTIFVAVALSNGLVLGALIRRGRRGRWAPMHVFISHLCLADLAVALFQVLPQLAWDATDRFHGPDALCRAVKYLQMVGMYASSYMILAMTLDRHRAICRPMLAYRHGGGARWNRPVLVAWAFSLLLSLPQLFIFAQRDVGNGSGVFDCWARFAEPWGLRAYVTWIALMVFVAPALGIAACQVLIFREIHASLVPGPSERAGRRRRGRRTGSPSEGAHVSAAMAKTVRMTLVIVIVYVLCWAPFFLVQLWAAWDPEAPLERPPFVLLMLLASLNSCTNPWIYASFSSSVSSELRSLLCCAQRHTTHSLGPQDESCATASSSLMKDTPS
Sequence of V1 receptor (P30560 whole entry): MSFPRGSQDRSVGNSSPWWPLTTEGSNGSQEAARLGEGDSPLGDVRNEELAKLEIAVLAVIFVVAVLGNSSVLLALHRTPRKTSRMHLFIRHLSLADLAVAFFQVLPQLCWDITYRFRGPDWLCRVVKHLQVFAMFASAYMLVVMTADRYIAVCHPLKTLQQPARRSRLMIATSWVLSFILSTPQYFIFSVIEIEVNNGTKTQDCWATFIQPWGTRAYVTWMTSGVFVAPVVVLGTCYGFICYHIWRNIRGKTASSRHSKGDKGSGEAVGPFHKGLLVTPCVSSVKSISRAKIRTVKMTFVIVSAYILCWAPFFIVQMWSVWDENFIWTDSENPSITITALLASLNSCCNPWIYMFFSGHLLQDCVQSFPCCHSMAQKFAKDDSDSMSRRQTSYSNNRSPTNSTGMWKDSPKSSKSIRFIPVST

Consider `Cc1ccccc1C(=O)Nc1ccc(C(=O)N2CCCC(OCCN(C)C)c3cc(Cl)ccc32)cn1` (stereo not drawn) [Compound of Ex. 37, 7-chloro-5-(2-dimethylaminoethoxy)-1-[6-(2-methylbenzoylamino)nicotinoyl]-2,3,4,5-tetrahydro-1H-benzazepine], for which the IC50 (usually the point on the concentration scale where inhibition reaches its midpoint) in test [1] was 11 nM; in test [2] it was 1140 nM; in test [3], 5 nM.
For `Cc1ccccc1C(=O)Nc1ccc(C(=O)N2CCCC(CC(N)=O)c3cc(Cl)ccc32)cn1` (stereo not drawn) [Compound of Ex. 40] the same measures were 44 nM, 740 nM and 9 nM.
Take `Cc1ccccc1C(=O)Nc1ccc(C(=O)N2CCCCc3cc(Cl)ccc32)cn1` [Compound of Ex. 43]: the half-inhibitory concentration (IC50) is 13 nM in test [1], 290 nM in test [2] and 10 nM in test [3].
For the compound `O=C(Nc1ccc(C(=O)N2CCCCc3cc(Cl)ccc32)cn1)c1ccccc1Cl` [Compound of Ex. 44], the concentration for half-maximal inhibition (IC50) in test [1] was 8 nM; in test [2], 307 nM; in test [3], 11 nM.
In the same order, the values of `O=C(Nc1ccc(C(=O)N2CCCCc3cc(Cl)ccc32)cn1)c1ccccc1Br` [Compound of Ex. 45] are 5 nM, 260 nM and 7 nM.
`O=C(Nc1ccc(C(=O)N2CCCCc3cc(Cl)ccc32)cn1)C1CCCCC1` [Compound of Ex. 46]: the IC50 in test [2] is 360 nM.
As to `Cc1ccccc1C(=O)Nc1ccc(C(=O)N2CCCN(C)c3cc(Cl)ccc32)cn1` [Compound of Ex. 52], the concentration for half-maximal inhibition (IC50) came out at 51 nM in test [1], 1600 nM in test [2] and 22 nM in test [3].
As to `COC1CCCN(C(=O)c2ccc(NC(=O)c3ccccc3Cl)nc2)c2ccc(Cl)cc21` (stereo not drawn) [Compound of Ex. 72], the half-inhibitory concentration (IC50) in test [2] was 440 nM.
Consider `C=CCOC1CCCN(C(=O)c2ccc(NC(=O)c3ccccc3Br)nc2)c2ccc(Cl)cc21` (stereo not drawn) [Compound of Ex. 76], for which the IC50 turned out to be 27 nM in test [1], 1500 nM in test [2] and 8 nM in test [3].
For `Cc1ccccc1C(=O)Nc1ccc(C(=O)N2CCCC(NC3CC3)c3cc(Cl)ccc32)cn1` (stereo not drawn) [Compound of Ex. 77], the IC50 in test [2] came out at 1800 nM.
In test [2], `CNC1CCCN(C(=O)c2ccc(NC(=O)c3ccccc3Cl)nc2)c2ccc(Cl)cc21` (stereo not drawn) [Compound of Ex. 80] returned an IC50 of 1000 nM.
On the same count and under the same terms, under `CCOC(=O)COc1ccccc1C(=O)Nc1ccc(C(=O)N2CCCCc3cc(Cl)ccc32)cn1` [Compound of Ex. 82] stands 9700 nM.
`O=C(Nc1ccc(C(=O)N2CCCCc3cc(Cl)ccc32)cn1)c1ccccc1OCCO` [Compound of Ex. 83]: the IC50 is 71 nM in test [1], 6600 nM in test [2] and 430 nM in test [3].
On to `O=C(O)CCCOc1ccccc1C(=O)Nc1ccc(C(=O)N2CCCCc3cc(Cl)ccc32)cn1` [Compound of Ex. 86], for which the inhibition at 10 µM in test [2] was determined as 17%.
Regarding `CN1CCN(C(=O)COc2ccccc2C(=O)Nc2ccc(C(=O)N3CCCCc4cc(Cl)ccc43)cn2)CC1` [Compound of Ex. 88, 7-chloro-1-{6-[2-(4-methyl-1-piperazinyl)-carbonylmethoxybenzoylamino]nicotinoyl}-2,3,4,5-tetrahydro-1H-benzazepine], the IC50 in test [1] was determined as 26 nM; in test [2], 4500 nM; in test [3], 200 nM.
On to `CN1CCN(C(=O)CCCOc2ccccc2C(=O)Nc2ccc(C(=O)N3CCCCc4cc(Cl)ccc43)cn2)CC1` [Compound of Ex. 89], for which the half-inhibitory concentration (IC50) in test [2] turned out to be 7300 nM.
`CC(C)NCCOc1ccccc1C(=O)Nc1ccc(C(=O)N2CCCCc3cc(Cl)ccc32)cn1` [Compound of Ex. 91]: in test [2], the inhibition at 10 µM amounted to 38%.
As to `CC(=O)NC1CCN(CCOc2ccccc2C(=O)Nc2ccc(C(=O)N3CCCCc4cc(Cl)ccc43)cn2)CC1` [Compound of Ex. 92], the IC50 is 60 nM in test [1] and 380 nM in test [3]. In test [2], the inhibition at 10 µM worked out at 38%.
Regarding `O=C1c2ccccc2OCCN1c1ccc(C(=O)N2CCCCc3cc(Cl)ccc32)cn1` [Compound of Ex. 94, 7-chloro-1-[6-(6,7-benzo-1-oxo-4-azepin-5-on-4-yl)nicotinoyl]-2,3,4,5-tetrahydro-1H-benzazepine], the IC50 in test [1] was determined as 42 nM; in test [2], 840 nM; in test [3] it was 36 nM.
Turning to `NC(=O)COc1ccccc1C(=O)Nc1ccc(C(=O)N2CCCCc3cc(Cl)ccc32)cn1` [Compound of Ex. 97], the IC50 in test [1] stood at 5 nM; in test [2], 1800 nM; in test [3] it was 160 nM.
For `O=C(O)CC1CCCN(C(=O)c2ccc(NC(=O)c3ccccc3Br)nc2)c2ccc(Cl)cc21` (stereo not drawn) [Compound of Ex. 101] the same measures were 490 nM, 3500 nM and 33 nM.
For `Cc1ccccc1C(=O)Nc1ccc(C(=O)N2CCCC(CC(=O)N3CCCCC3)c3cc(Cl)ccc32)cn1` (stereo not drawn) [Compound of Ex. 104] the same measures were 38 nM, 510 nM and 24 nM.
As for `CN1CCN(C(=O)CC2CCCN(C(=O)c3ccc(NC(=O)c4ccccc4Cl)nc3)c3ccc(Cl)cc32)CC1` (stereo not drawn) [Compound of Ex. 107], the concentration for half-maximal inhibition (IC50) in test [2] stood at 410 nM.
For the compound `CCNC(=O)CC1CCCN(C(=O)c2ccc(NC(=O)c3ccccc3Cl)nc2)c2ccc(Cl)cc21` (stereo not drawn) [Compound of Ex. 112], the IC50 in test [1] was found to be 9 nM; in test [2], 280 nM; in test [3] it was 3 nM.
Consider `O=C(Nc1ccc(C(=O)N2CCCC(CC(=O)N3CCCC3)c3cc(Cl)ccc32)cn1)c1ccccc1Cl` (stereo not drawn) [Compound of Ex. 114], for which the values for the IC50 in test [1], in test [2] and in test [3] were 11 nM, 320 nM and 3 nM, respectively.
In test [2], `CCN(CC)CCN(C)C(=O)CC1CCCN(C(=O)c2ccc(NC(=O)c3ccccc3Br)nc2)c2ccc(Cl)cc21` (stereo not drawn) [Compound of Ex. 120] yielded a 50% inhibitory concentration (IC50) of 350 nM.
The same measure, in the same setting: under `O=C(Nc1ccc(C(=O)N2CCCC(O)(CO)c3cc(Cl)ccc32)cn1)c1ccccc1Cl` (stereo not drawn) [Compound of Ex. 145] stands 1200 nM.
As to `O=C(Nc1ccc(C(=O)N2CCCC(OCCNC3CCCC3)c3cc(Cl)ccc32)cn1)c1ccccc1Cl` (stereo not drawn) [Compound of Ex. 187], the results for the half-maximal inhibitory concentration (IC50) in test [1] and in test [3] were 7.8 nM and 8 nM, respectively.
With `Cc1ccccc1C(=O)Nc1ccc(C(=O)N2CCCC(OC(=O)CN(C)C)c3cc(Cl)ccc32)cn1` (stereo not drawn) [Compound of Ex. 189], the IC50 in test [1] worked out at 34 nM; in test [3] it was 12 nM.
